Results published in patent publication US10288602B2, “Screening method, a kit, a method of treatment and a compound for use in a method of treatement” (ATROGI AB, priority 2013, dated 2019).

Columns and labels:
[1] = test system: CHO GLUT4 cells; experiment: Glucose uptake (3H-2-deoxy-glucose) in CHO GLUT4 cells; format: cell-based, Chinese Hamster; conditions: for mTORC2 activity represented by glucose uptake: CHO GLUT4 cells, reference: cells not contacted
Experimental: (§1) Glucose uptake was measured in CHO Glut 4 (Chinese Hamster Ovary cells transfected to overexpress GLUT4) and L6-myotubes grown in 12-well plates using ^3H-2-dexoy-glucose as previously described (Nevzorova et al. 2006, Dehvari et al. 2011, Nevzorova et al. 2002) with minor modifications. L6-cells were differentiated for 7-8 days before the experiment, serum-starved over night in media containing 0.5% fatty-acid free BSA and stimulated with test compounds for totally 2 h, unless otherwise stated. The test 3′ compounds used in the experiment were: N-[5-(4,5-dihydro-1H-imidazol-2yl)-2-hydroxy-5,6,7,8-tetrahydro naphthalen-1-yl] methanesulfonamide hydrobromide (A61603), noradrenaline (NA), insulin, oxymetazoline (oxy), and 5-(methylamino)-2-({(2R,3R,6S,8S,9R,11R)-3,9,11-trimethyl-8-[(S)-1-methyl-2-oxo-2-(l H-pyrrol-2-yl)ethyl]-1,7-dioxaspiro[5.5]undec-2-yl}methyl)-1,3-benzoxazole-4-carboxylic acid (also referred to as Calcimycin) (A23187).
(§2) Inhibitors were added 30 min before stimulation. 25 min before the end of the experiment, cells were washed twice in warm PBS and kept in glucose-free DMEM together with the different drugs for 10 min before 50 nM ^3H-2-deoxy-glucose was added for additional 6 minutes. The reaction was terminated by washing the cells in ice-cold PBS three times. Cells were lysed in 0.2 NaOH for 1 h in 60° C. and the radioactivity detected by liquid scintillation (scintillation buffer Emulsifier Safe, Perking Elmer and analysis is a Tri-Carb® 2800TR from Perkin Elmer).

[2] = test system: Akt; experiment: Western blot of Akt phosphorylation (T308, S473) in CHO GLUT4 cells; format: cell-based, Chinese Hamster; conditions: for Akt p-S473 % basal: CHO GLUT4, 10 min, approximate values from FIG. 6B, insulin, NA, oxy 0.1 μM, A61603 0.01 μM; for Akt activity represented by phosphorylation of Akt: CHO GLUT4 cells, FIG. 6, 10 min, reference: cells not contacted
Experimental: (§3) L6 myotubes (FIG. 5) and CHO GLUT4 cells (FIG. 6) in 12-well plates were used for western blotting. Cells were serum-starved overnight before experiment. Immunoblotting was performed as previously described (Nevzorova et al. 2006, […] et al. 2011, Nevzorova et al. 2002). Primary antibodies (Akt, phospho-Akt T308, phospho-Akt S473, AS 160, GLUT4, phospho-mTOR […], phospho-mTOR […], raptor, and rictor diluted 1:1000) were all from Cell Signaling Technology, Inc and were detected using a secondary antibody (horseradish peroxidase-linked anti-rabbit IgG, from Cell Signaling Technology, Inc) diluted 1:2000 and measured using enhanced chemiluminescence (ECL, Amersham Biosciences).

[3] = test system: L6 myotubes; experiment: Glucose uptake (3H-2-deoxy-glucose) in L6 myoblasts and L6 myotubes; format: cell-based; conditions: for effect on GPCR and insulin-stimulated glucose uptake: indinavir 100M; for glucose uptake in L6 myoblasts and L6 myotubes / mTORC2 activity represented by glucose uptake: FIG. 2; for mTORC2 activity represented by glucose uptake: L6 myoblasts and myotubes, reference: cells not contacted
Experimental: as §1, §2

[4] = test system: Akt; experiment: Western blot of Akt phosphorylation (T308, S473) in L6 myotubes; format: cell-based; conditions: for Akt activity represented by phosphorylation of Akt: FIG. 5, 10 min, 30 min, 2 h, reference: cells not contacted
Experimental: as §3

[5] = test system: mTORC2; experiment: Western blot of mTOR phosphorylation (S2448, S2481) in L6 myotubes; format: cell-based; conditions: for mTORC2 activity represented by phosphorylation of mTORC2: FIG. 13, reference: cells not brought into contact with the compound
Experimental: as §3

[6] = test system: GLUT4; experiment: GLUT4 in plasma membrane (GLUT4 translocation) in L6 myotubes; format: cell-based; conditions: for mTORC2 activity represented by GLUT translocation: FIG. 20, reference: cells not contacted
[7] = test system: rat soleus muscle; experiment: 3-O-methylglucose uptake in intact rat soleus muscle ex vivo; conditions: 30 min preincubation, then insulin or isoproterenol 1 h; FIG. 11
Experimental: Soleus muscles were dissected from Sprague-Dawley rats and suspended in Krebs-Henseleit bicarbonate (KHB) buffer (118.5 mM NaCl, 4.7 mM KCl, 1.2 mM KH2PO4, 25 mM NaHCO3, 2.5 mM CaCl2, 1.2 mM MgSO, 5 mM HEPES) in organ baths containing 30 ml KHB containing 5 mM glucose and 15 mM mannitol, bubbled with 95% O2/5% CO2 (pH 7.4) and maintained at 37° C. […] Muscles were rinsed with KHB (20 mM mannitol) for 10 min, then incubated in KHB (8 mM 3-O-methylglucose and 12 mM mannitol with 438 μCi/mmol 3-O-methyl[^3H]glucose (80.2 Ci/mmol; PerkinElmer) and 42 μCi/mmol [^14C] mannitol (58.8 mCi/mmol; PerkinElmer, USA)) for 12 min. Muscles were then rinsed with PBS and frozen in liquid nitrogen, weighed and dissolved in 1 mL of 0.5M NaOH at 60′C. ^3H and ^14C were measured by liquid scintillation counting. Total muscle 3-O-methylglucose and extracellular space were measured as described previously (23). Intracellular 3-O-methylglucose accumulation was calculated by: (Total muscle 3-O-methylglucose)−(extracellular 3-O-methylglucose)=intracellular 3-O-methylglucose. This is then expressed as a rate of 3-O-methylglucose transport per mL of intracellular water per hour.

[8] = test system: skeletal muscle; experiment: [3H]-2DG glucose uptake in mouse skeletal muscle in vivo; conditions: WT 129sv mice, 10 mg/kg, 10 min before insulin or isoproterenol 1 mg/kg; FIG. 12
Experimental: After 20 min [^3H]-2DG (130 μCi/kg) was injected. Muscles were sampled 1 h later and lysed in 0.5M NaOH.
Glucose uptake was measured by liquid scintillation counting.

[9] = test system: other members of the PI3K/PIKK family; conditions: at up to 1 μM; Garcia-Martinez et al. 2009; cited from earlier work
[10] = Glucose tolerance test in Goto-Kakizaki GK-rats; format: in vivo, rat; conditions: in drinking water 4 days, 60, 90 and 120 minutes after glucose, vs untreated animals, FIG. 21
Experimental: Goto-Kakizaki GK-rats, showing impaired glucose tolerance form an established model of type 2 diabetes. GK-rats were split into two groups, one of which was treated with the GPCR agonist clenbuterol in the drinking water for 4 days prior to a glucose tolerance test.

[11] = test system: PIP3; experiment: PIP3 immunofluorescence in permeabilised L6 cells; format: cell-based; conditions: FIG. 3
Experimental: PIP3 was visualized in permeabilised L6 cells (0.5% Triton X-100 in water, 15 min) blocked with 10% rat serum in TBS overnight at 4° C. Mouse anti-PIP3 conjugated to a biotinylated goat anti-mouse IgM diluted 1:100) was incubated for 1 h at 37° C., cells washed three times (10% rat serum in TBS), secondary antibody added (streptavidin-Alexa Fluor® 488 1:2000 in TBS, 30 min, 37° C.). Slides were mounted with ProLong® Gold antifade reagent (Invitrogen).

[12] = test system: AS160; experiment: Western blot of AS160 phosphorylation (T642) in L6 myotubes; format: cell-based; conditions: FIG. 7; for Akt activity represented by phophorylation of Akt substrate: AS160 p-T642, L6 myotubes, reference: cells not contacted; for AS160 phosphorylation: L6 myotubes
Experimental: as §3

[13] = L6 myotubes, FIG. 19, cytochalasin B 10 μM

Br.CS(=O)(=O)Nc1c(O)ccc2c1CCCC2C1=NCCN1 (centres unmarked) [A61603, N-[5-(4,5-dihydro-1H-imidazol-2yl)-2-hydroxy-5,6,7,8-tetrahydronaphthalen-1-yl] methanesulfonamide hydrobromide]
mTORC2 activity represented by glucose uptake ([1]; FIG. 1): + (1)
Akt p-S473 % basal [2]: 135 % basal
Akt activity represented by phosphorylation of Akt [2]: − (6)

CCN(CC)CCCCN1c2ccccc2Oc2ccc(Cl)cc21 [Akt inhibitor X]
effect on insulin-stimulated glucose uptake ([3]; L6 myotubes, inhibitor 10 μM, FIG. 4): inhibited
effect on GPCR-mediated glucose uptake ([3]; L6 myotubes, inhibitor 10 μM, isoproterenol, FIG. 4): not GPCR-mediated glucose uptake

O=C(Nc1cccc(Nc2ncc(Br)c(NCCc3cnc[nH]3)n2)c1)N1CCCC1 [BX-912]
effect on insulin-mediated T308-Akt phosphorylation ([4]; L6 myotubes, FIG. 8): significantly inhibited
effect on S473-Akt phosphorylation ([4]; L6 myotubes, insulin, FIG. 8): no effect

COc1ccc(-c2ccc3c(N4CCOCC4)nc(N4C[C@@H](C)O[C@@H](C)C4)nc3n2)cc1CO [KU0063794]
effect on GPCR stimulated glucose-uptake ([1]; CHO glut 4, FIG. 10B): inhibits
effect on GPCR stimulated glucose-uptake ([3]; L6 myotubes, FIG. 10A): inhibits
effect on insulin-stimulated Akt phosphorylation at S473 ([4]; 100 nM, L6 myotubes, FIG. 9): decreased
effect on insulin-stimulated phosphorylation of Akt at T308 ([4]; 100 nM, L6 myotubes, FIG. 9): no effect
effect on insulin- and GPCR-stimulated mTOR phosphorylation at S2448 and S2481 ([5]; FIG. 13): abolished
effect on insulin and GPCR stimulated GLUT4 translocation ([6]; FIG. 20): significantly inhibits
effect on insulin and GPCR stimulated glucose-uptake in intact soleus muscle ex-vivo [7]: inhibits
effect on insulin and GPCR stimulated glucose-uptake in skeletal muscle in-vivo [8]: inhibits
inhibition of other members of the PI3K/PIKK family [9]: does not inhibit

CC(C)(C)NCC(O)c1cc(Cl)c(N)c(Cl)c1 (centres unmarked) [clenbuterol]
blood glucose levels in glucose tolerance test [10]: greatly improved

C=C1[C@@H](C)[C@H]2[C@H](Cc3ccccc3)NC(=O)[C@]23OC(=O)/C=C/[C@H](O)CCC[C@@H](C)C/C=C/[C@H]3[C@@H]1O [cytochalasin B]
block of basal glucose uptake ([3]; L6 myotubes, FIG. 19, cytochalasin B 10 μM, indinavir): ~40%
effect on GPCR and insulin-stimulated glucose uptake [3, 13]: markedly reduced

CC(C)(C)NC(=O)[C@@H]1CN(Cc2cccnc2)CCN1C[C@@H](O)C[C@@H](Cc1ccccc1)C(=O)N[C@H]1c2ccccc2C[C@H]1O [indinavir]
effect on GPCR and insulin-stimulated glucose uptake [3, 13]: markedly reduced

CC(C)NCC(O)c1ccc(O)c(O)c1 (centres unmarked) [isoproterenol]
mTORC2 activity represented by glucose uptake ([1]; FIG. 1): + (1, 2)
glucose uptake in L6 myoblasts and L6 myotubes [3]: increased
mTORC2 activity represented by glucose uptake [3]: + (1, 2)
PIP3 content [11]: not isoproterenol increased PIP3 content
Akt activity represented by phosphorylation of Akt ([4]; L6 myotubes): − (5)
Akt activity represented by phophorylation of Akt substrate [12]: − (7)
AS160 phosphorylation [12]: not isoproterenol treatment
phosphorylation of mTOR (sites S2448, S2481) ([5]; FIG. 13): phosphorylation only at S2481
mTORC2 activity represented by phosphorylation of mTORC2 [5]: + (13)
mTORC2 activity represented by GLUT translocation [6]: + (20)

NC[C@H](O)c1ccc(O)c(O)c1 [noradrenaline]
mTORC2 activity represented by glucose uptake ([1]; FIG. 1): + (1)
glucose uptake in CHO glut 4 ([1]; FIG. 1): increases
Akt p-S473 % basal [2]: 130 % basal
Akt activity represented by phosphorylation of Akt [2]: − (6)

Cc1cc(C(C)(C)C)c(O)c(C)c1CC1=NCCN1 [oxymetazoline]
mTORC2 activity represented by glucose uptake ([1]; FIG. 1): + (1)
Akt p-S473 % basal [2]: 135 % basal
Akt activity represented by phosphorylation of Akt [2]: − (6)

CO[C@H]1C[C@@H]2CC[C@@H](C)[C@@](O)(O2)C(=O)C(=O)N2CCCC[C@H]2C(=O)O[C@H]([C@H](C)C[C@@H]2CC[C@@H](O)[C@H](OC)C2)CC(=O)[C@H](C)/C=C(\C)[C@@H](O)[C@@H](OC)C(=O)[C@H](C)C[C@H](C)/C=C/C=C/C=C/1C [rapamycin]
effect on insulin mediated or isoproterenol mediated glucose uptake ([3]; short term treatment, L6 myotubes, FIG. 14): no effect

insulin
glucose uptake in L6 myoblasts and L6 myotubes [3]: increased
mTORC2 activity represented by glucose uptake [3]: + (2)
PIP3 content [11]: increased
Akt activity represented by phosphorylation of Akt ([4]; L6 myotubes): + (5, 6)
Akt phosphorylation at T308 and S473 ([4]; all time points examined, FIG. 5, FIG. 6): increased
Akt p-S473 % basal [2]: 170 % basal
Akt activity represented by phosphorylation of Akt [2]: + (5, 6)
Akt activity represented by phophorylation of Akt substrate [12]: + (7)
AS160 phosphorylation [12]: phosphorylated
phosphorylation of mTOR (sites S2448, S2481) ([5]; FIG. 13): phosphorylation of mTOR at both S2448 and S2481
mTORC2 activity represented by phosphorylation of mTORC2 [5]: + (13)
mTORC2 activity represented by GLUT translocation [6]: + (20)
